{"source": "patent US20140107316A1", "about": "“DRUG DELIVERY CONJUGATES CONTAINING UNNATURAL AMINO ACIDS AND METHODS FOR USING” (priority 2012, published 2014)", "key": {"folate receptors (FRs)": {"biological_target": "T1, folate receptors (FRs) (Homo sapiens, UniProt P15328)", "T1 construct": "FR-positive KB cells were heavily seeded into 24-well cell culture plates; endogenous in cells; host or cells: KB cells (human cervical carcinoma)", "T1 sequence (P15328 25-234)": "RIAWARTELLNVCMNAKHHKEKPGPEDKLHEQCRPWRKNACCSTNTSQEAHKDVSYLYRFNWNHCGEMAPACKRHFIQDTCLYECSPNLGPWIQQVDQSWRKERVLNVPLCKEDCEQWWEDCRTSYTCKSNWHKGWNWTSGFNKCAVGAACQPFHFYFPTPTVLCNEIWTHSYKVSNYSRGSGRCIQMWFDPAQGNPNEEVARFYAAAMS", "experiment": "Relative affinity assay (3H-folic acid displacement on KB cells)", "type": "binding", "conditions": "compared to folic acid (relative affinity=1), 10% serum/FDRPMI", "description": "Relative Affinity Assay. The affinity for folate receptors (FRs) relative to folate was determined according to a previously described method (Westerhof, G. R., J. H. Schornagel, et al. (1995) Mol. Pharm. 48: 459-471) with slight modification. Briefly, FR-positive KB cells were heavily seeded into 24-well cell culture plates and allowed to adhere to the plastic for 18 h. Spent incubation media was replaced in designated wells with folate-free RPMI (FFRPMI) supplemented with 100 nM ^3H-folic acid in the absence and presence of increasing concentrations of test article or folic acid. Cells were incubated for 60 min at 37° C. and then rinsed 3 times with PBS, pH 7.4. Five hundred microliters of 1% SDS in PBS, pH 7.4, were added per well. Cell lysates were then collected and added to individual vials containing 5 mL of scintillation cocktail, and then counted for radioactivity. Negative control tubes contained only the ^3H-folic acid in FFRPMI (no competitor). Positive control tubes contained a final concentration of 1 mM folic acid, and CPMs measured in these samples (representing non-specific binding of label) were subtracted from all samples."}, "KB tumors": {"system": "KB tumors", "experiment": "KB tumor assay in nu/nu mice", "conditions": "for CR (%) / Cures (%) / PR (%) / Toxicity Deaths (%) / Toxicity Avg. Weight Loss: TIW", "description": "Inhibition of Tumor Growth in Mice. Four to seven week-old mice (Balb/c or nu/nu strains) were purchased from Harlan Sprague Dawley, Inc. (Indianapolis, Ind.). Normal rodent chow contains a high concentration of folic acid (6 mg/kg chow); accordingly, mice used were maintained on the folate-free diet (Harlan diet #TD00434) for 1 week before tumor implantation to achieve serum folate concentrations close to the range of normal human serum. For tumor cell inoculation, 1×10^6 M109 cells (Balb/c strain) or 1×10^6 KB cells (nu/nu strain) in 100 μL were injected in the subcutis of the dorsal medial area. Tumors were measured in two perpendicular directions every 2-3 days using a caliper, and their volumes were calculated as 0.5×L×W^2, where L=measurement of longest axis in mm and W=measurement of axis perpendicular to L in mm. […] Dosing solutions were prepared fresh each day in PBS and administered through the lateral tail vein of the mice.\nGeneral KB Tumor Assay. The anti-tumor activity of the compounds described herein, when administered intravenously (i.v.) to tumor-bearing animals, was evaluated in nu/nu mice bearing subcutaneous KB tumors. Approximately 8 days post tumor inoculation in the subcutis of the right axilla with 1×10^6 KB cells (average tumor volume at to=50-100 mm^3), in mice (5/group) were injected i.v. three times a week (TIW), for 3 weeks with […] of the drug delivery conjugate or with an equivalent dose volume of PBS (control), unless otherwise indicated. Tumor growth was measured using calipers at 2-day or 3-day intervals in each treatment group. Tumor volumes were calculated using the equation V=a×b^2/2, where “a” is the length of the tumor and “b” is the width expressed in millimeters.\nToxicity as Measured by Weight Loss. The percentage weight change of the mice was determined in mice (5 mice/group) on selected days post-tumor inoculation (PTI), and graphed.\nIn vivo activity against tumors."}, "KB-CR tumors": {"system": "KB-CR tumors", "experiment": "Cisplatin-resistant KB-CR tumor model", "type": "in vivo", "conditions": "2 μmol/kg i.v., three times per week (M/W/F), 2 weeks"}}, "note": "Entries after “also recorded” stand apart in the source; their conditions may differ. Marks after values point to notes of the source that are not given here.", "data": [{"smiles": "CCCC(=O)OCN(C(=O)[C@@H](NC(=O)[C@H]1CCCCN1C)[C@@H](C)CC)[C@H](C[C@@H](OC(C)=O)c1nc(C(=O)N[C@@H](Cc2ccc(O)cc2)C[C@H](C)C(=O)NNC(=O)OCCSSC[C@@H](NC(=O)[C@H](CCC(=O)NC[C@H](O)[C@@H](O)[C@H](O)[C@H](O)CO)NC(=O)[C@@H](CCC(=O)O)NC(=O)[C@H](CCC(=O)NC[C@H](O)[C@@H](O)[C@H](O)[C@H](O)CO)NC(=O)[C@@H](CCC(=O)O)NC(=O)[C@H](CCC(=O)NC[C@H](O)[C@@H](O)[C@H](O)[C@H](O)CO)NC(=O)CC[C@@H](NC(=O)c2ccc(NCc3cnc4nc(N)[nH]c(=O)c4n3)cc2)C(=O)O)C(=O)O)cs1)C(C)C", "note": "[EC1456]", "values": [{"measurement": "Relative Affinity", "setting": "folate receptors (FRs)", "value": 0.27}, {"measurement": "In vivo activity", "setting": "KB tumors", "value": "Complete"}, {"measurement": "CR (%)", "setting": "KB tumors; 0.5 μmol/kg, 3 weeks", "value": 0, "unit": "%"}, {"measurement": "Cures (%)", "setting": "KB tumors; 0.5 μmol/kg, 3 weeks", "value": 0, "unit": "%"}, {"measurement": "PR (%)", "setting": "KB tumors; 0.5 μmol/kg, 3 weeks", "value": 60, "unit": "%"}, {"measurement": "Toxicity Deaths (%)", "setting": "KB tumors; 0.5 μmol/kg, 3 weeks", "value": 0, "unit": "%"}, {"measurement": "Toxicity Avg. Weight Loss", "setting": "KB tumors; 0.5 μmol/kg, 3 weeks, untreated control group 2.4%", "value": "<5", "unit": "%*"}, {"measurement": "CR (%)", "setting": "KB tumors; 0.67 μmol/kg, 2 weeks", "value": 20, "unit": "%"}, {"measurement": "Cures (%)", "setting": "KB tumors; 0.67 μmol/kg, 2 weeks", "value": 0, "unit": "%"}, {"measurement": "PR (%)", "setting": "KB tumors; 0.67 μmol/kg, 2 weeks", "value": 60, "unit": "%"}, {"measurement": "Toxicity Avg. Weight Loss", "setting": "KB tumors; 0.67 μmol/kg, 2 weeks", "value": "<2", "unit": "%"}, {"measurement": "Toxicity Deaths (%)", "setting": "KB tumors; 0.67 μmol/kg, 2 weeks", "value": 0, "unit": "%"}, {"measurement": "specific activity mediated by the folate receptor", "setting": "KB tumors; 1 μmol/kg TIW co-dosed with excess EC0923 (50 or 100 μmol/kg)", "value": "competable with excess EC0923"}, {"measurement": "whole animal toxicity (animal body weight)", "setting": "KB tumors; 1 μmol/kg TIW, 2 wk", "value": "did not result in any observable gross toxicity; also recorded: does not show any evidence of whole animal toxicity"}, {"measurement": "CR (%)", "setting": "KB tumors; 1.0 μmol/kg, 2 weeks", "value": 0, "unit": "%"}, {"measurement": "Cures (%)", "setting": "KB tumors; 1.0 μmol/kg, 2 weeks", "value": 60, "unit": "%"}, {"measurement": "PR (%)", "setting": "KB tumors; 1.0 μmol/kg, 2 weeks", "value": 40, "unit": "%"}, {"measurement": "Toxicity Avg. Weight Loss", "setting": "KB tumors; 1.0 μmol/kg, 2 weeks", "value": "<1.5", "unit": "%"}, {"measurement": "Toxicity Deaths (%)", "setting": "KB tumors; 1.0 μmol/kg, 2 weeks", "value": 0, "unit": "%"}, {"measurement": "CR (%)", "setting": "KB tumors; 2.0 μmol/kg, 2 weeks", "value": 0, "unit": "%"}, {"measurement": "Cures (%)", "setting": "KB tumors; 2.0 μmol/kg, 2 weeks", "value": 100, "unit": "%"}, {"measurement": "PR (%)", "setting": "KB tumors; 2.0 μmol/kg, 2 weeks", "value": 0, "unit": "%"}, {"measurement": "Toxicity Avg. Weight Loss", "setting": "KB tumors; 2.0 μmol/kg, 2 weeks", "value": "<3", "unit": "%"}, {"measurement": "Toxicity Deaths (%)", "setting": "KB tumors; 2.0 μmol/kg, 2 weeks", "value": 0, "unit": "%"}, {"measurement": "complete response (test animals)", "setting": "KB tumors; intravenously 1 μmol/kg TIW, 2 wk", "value": "4/4"}, {"measurement": "toxicity in relation to anti-tumor effect in mice", "setting": "KB tumors; mouse, in vivo", "value": "anti-tumor responses without significant toxicity"}, {"measurement": "complete responses", "setting": "KB-CR tumors", "value": "⅕"}, {"measurement": "cures", "setting": "KB-CR tumors", "value": "⅘"}, {"measurement": "weight loss / host animal toxicity", "setting": "KB-CR tumors", "value": "did not exhibit significant host animal toxicity; also recorded: did not cause any weight loss"}]}]}
